Measured values taken from BigSolDB 2.1.

O=C1C[C@@H](c2ccc(O)cc2)Oc2cc(O)cc(O)c21
solubility (mole fraction)
Conditions	288.15 K	293.15 K	298.15 K	303.15 K	308.15 K	313.15 K	318.15 K	323.15 K	328.15 K
in ethyl acetate	0.00998	0.0133	0.0154	0.0171	0.0191	0.0215	0.0244	0.027	0.0293
in isopropanol	0.0101	0.0116	0.0141	0.0161	0.0185	0.0204	0.0218	0.0252	0.0264
in methanol	0.00875	0.0094	0.00991	0.0105	0.0114	0.0144	0.0173	0.0187	0.0205
in n-butanol	0.000972	0.00137	0.00175	0.00215	0.00259	0.00299	0.00344	0.00388	0.0042
in n-hexane	2.92e-06	3.7e-06	4.71e-06	5.42e-06	6.46e-06	7.17e-06	7.73e-06	8.69e-06	9.09e-06

C[C@@H]1O[C@@H](O[C@H]2[C@H](Oc3cc(O)c4c(c3)O[C@H](c3ccc(O)cc3)CC4=O)O[C@H](CO)[C@@H](O)[C@@H]2O)[C@H](O)[C@H](O)[C@H]1O
solubility (mole fraction)
Conditions	288.15 K	293.15 K	298.15 K	303.15 K	308.15 K	313.15 K	318.15 K	323.15 K	328.15 K
in ethyl acetate	0.000184	0.000248	0.00031	0.00035	0.000404	0.000458	0.000513	0.000594	0.000646
in isopropanol	1.26e-05	1.59e-05	2.1e-05	2.46e-05	2.97e-05	3.34e-05	3.75e-05	4.29e-05	4.79e-05
in methanol	0.00158	0.00168	0.00197	0.00224	0.00264	0.00291	0.00322	0.00359	0.00389
in n-butanol	4.85e-05	6.34e-05	7.46e-05	0.000105	0.000157	0.000218	0.000285	0.000345	0.000391
in n-hexane	9.97e-08	1.39e-07	1.75e-07	2.21e-07	2.63e-07	3.12e-07	3.6e-07	4.04e-07	4.55e-07
